From ChEMBL document CHEMBL4152371, “A truncated RHAMM protein for discovering novel therapeutic peptides” (Bioorg Med Chem, 2018)
pKd: −log10 of the molar value. The source made the active and inactive calls. No cut-off for these calls is given here.

Key:
[1] = target: T1, Hyaluronan mediated motility receptor (Homo sapiens) (UniProt O75330); assay: Inhibition of C-terminal His-tagged 7 kDa RHAMM (unknown origin) binding to HA assessed as association constant at 750 nM after 240 secs by SPR method
T1 sequence (whole entry): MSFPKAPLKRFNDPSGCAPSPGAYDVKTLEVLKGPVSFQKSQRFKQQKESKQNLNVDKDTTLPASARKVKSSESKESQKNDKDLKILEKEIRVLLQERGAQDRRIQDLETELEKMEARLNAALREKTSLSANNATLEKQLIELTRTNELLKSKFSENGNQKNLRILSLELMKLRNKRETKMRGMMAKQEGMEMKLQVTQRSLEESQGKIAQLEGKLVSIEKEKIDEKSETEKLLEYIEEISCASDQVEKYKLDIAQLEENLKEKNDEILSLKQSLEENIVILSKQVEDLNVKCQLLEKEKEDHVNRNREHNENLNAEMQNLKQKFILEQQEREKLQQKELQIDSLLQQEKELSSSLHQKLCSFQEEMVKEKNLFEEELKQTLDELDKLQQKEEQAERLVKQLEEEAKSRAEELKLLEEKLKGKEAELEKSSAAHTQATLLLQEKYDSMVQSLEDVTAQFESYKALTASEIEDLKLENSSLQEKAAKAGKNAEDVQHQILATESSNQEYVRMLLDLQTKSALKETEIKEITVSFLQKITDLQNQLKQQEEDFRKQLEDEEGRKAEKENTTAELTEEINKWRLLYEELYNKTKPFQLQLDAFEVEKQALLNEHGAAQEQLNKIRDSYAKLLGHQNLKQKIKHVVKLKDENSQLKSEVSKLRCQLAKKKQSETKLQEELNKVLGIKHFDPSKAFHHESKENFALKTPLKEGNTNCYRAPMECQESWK

[2] = target: T1, Hyaluronan mediated motility receptor (Homo sapiens); assay: Inhibition of C-terminal His-tagged 7 kDa RHAMM (unknown origin) binding to HA assessed as association constant at 1 nM after 240 secs by SPR method
[3] = target: T1, Hyaluronan mediated motility receptor (Homo sapiens); assay: Inhibition of C-terminal His-tagged 7 kDa RHAMM (unknown origin) binding to HA assessed as association constant at 10 nM after 240 secs by SPR method
[4] = target: T2, Hyaluronan mediated motility receptor (Homo sapiens, UniProt O75330); assay: Inhibition of recombinant RHAMM (unknown origin) binding to HA after 240 secs by SPR method
T2 sequence (O75330 whole entry): T1 sequence (whole entry)

[5] = target: T1, Hyaluronan mediated motility receptor (Homo sapiens); assay: Inhibition of C-terminal His-tagged 7 kDa RHAMM (unknown origin) binding to HA assessed as association constant at 500 nM after 240 secs by SPR method
[6] = target: T2, Hyaluronan mediated motility receptor; assay: Inhibition of C-terminal His-tagged 7 kDa RHAMM (unknown origin) binding to HA after 240 secs by SPR method
[7] = target: T1, Hyaluronan mediated motility receptor (Homo sapiens); assay: Inhibition of C-terminal His-tagged 7 kDa RHAMM (unknown origin) binding to HA assessed as association constant at 100 nM after 240 secs by SPR method
[8] = target: T1, Hyaluronan mediated motility receptor (Homo sapiens); assay: Inhibition of C-terminal His-tagged 7 kDa RHAMM (unknown origin) binding to HA assessed as association constant at 1000 nM after 240 secs by SPR method
[9] = target: T1, Hyaluronan mediated motility receptor (Homo sapiens); assay: Inhibition of C-terminal His-tagged 7 kDa RHAMM (unknown origin) binding to HA at 1 to 1000 nM after 240 secs by SPR method

Substance | K [1] [×10⁴ /M.s] | K [2] [×10⁴ /M.s] | K [3] [×10⁴ /M.s] | pKd [4] | K [5] [×10⁴ /M.s] | pKd [6] | K [7] [×10⁴ /M.s] | K [8] [×10⁴ /M.s] | inhibition [9]
H-EAFEDEEEEIDG-NH2 | 2.9 | 3.7 | 3.1 | 6.68 | 0.9 | 6.54 | 3.1 | 3.4 | –
H-EEDFGEEAEEEA-NH2 | 3.3 | 5.7 | 2.3 | 7.49 | 3 | 6.70 | 1.4 | 4 | –
H-FTEAESNMNDLV-NH2 | 3.5 | 0.8 | 0.5 | 7.52 | 4.9 | 7.68 | 0.1 | 2 | –
H-GEFEEEAEEEVA-NH2 | 1.2 | 0.48 | 0.22 | 6.89 | 1 | 6.58 | 1.5 | 1.6 | –
H-GEFSEAREDMAA-NH2 | – | – | – | – | – | – | – | – | inactive
H-SVEAEAEEGEEY-NH2 | 1.9 | 0.02 | 0.16 | 6.48 | 2.3 | 7.50 | 1.4 | 1.3 | –
H-VEGEGEEEGEEY-NH2 | 5 | 0.7 | 1.6 | 7.62 | 5.8 | 7.36 | 0.2 | 4.1 | –
